Data set [1] is described as follows: Solubility of Clotrimazole in water / methanol, dark field microscopy. In kind it is physicochemical.
From the text: The methanol solution was then mixed with 1% cellulose gel (treatment) and water (positive control). All samples were examined under a dark field microscope.
For data set [2] the following is noted: cited from earlier work.
A short description of data set [3]: Dye release from crystalline cellulose gel to liquid phase (visual and spectrophotometric). In kind it is physicochemical. The note with it: for release pattern from crystalline cellulose gel (very slow, slow, fast, very fast): categorised from absorbance in the liquid phase, 0-72 hours; for dye release to liquid phase, absorbance: over 72 hours, 10 ml RO water over gel, at absorbance maximum of dye, 4 AU = saturation; for colour of solution above the precipitate after 72 hours (dye diffusion out of cellulose crystals): 72 hours at room temperature (approximately 21-22° C.), visual. On the procedure:
Approximately 2 ml aliquots of 3% w/v crystalline cellulose gel samples containing small solid cellulose crystals were thoroughly mixed with respective model dye solutions and incubated for 30 minutes at room temperature. The stained samples where then centrifuged. The supernatant was decanted, and the pellets containing crystalline cellulose were washed several times with reverse osmosis water and centrifuged. The cycles of washing and centrifugation were repeated until water in which cellulose gel was suspended was clear. After the final wash, small samples of each gel were taken for microscopic examination, and the gels in each tube were covered with a 10 ml column of RO water. These preparations served as media for monitoring the rate of dye release from crystalline cellulose gel to the surrounding liquid phase. Following a few minutes of sample equilibration, 500 μl of the liquid phase was withdrawn from each preparation for spectroscopic measurements to establish absorbance values at time 0. Subsequently, 500 μl samples of the liquid phase were collected at 2, 6, 12, 24, 48, and 72 hour intervals for monitoring of dye release to the liquid phase from the cellulose matrix over time.

Where [4] appears, read: 1 mg per ml, dark field microscope.

SMILES strings stand for the structures.

The values that follow come from patent US20170000903A1, “CRYSTALLINE CELLULOSE GEL-BASED CRYPTANDS, SURFACE ACTIVE AGENTS, EMULSIONS AND VESICLES” (UNIVERSITY OF SASKATCHEWAN, priority 2013, published 2017).

For `Clc1ccccc1C(c1ccccc1)(c1ccccc1)n1ccnc1` [Clotrimazole], in data set [1] (setting [4]), the solubility in methanol result is recorded as “totally dissolved in methanol” and the solubility in water result is on record as “not soluble in water”. For the same compound, the “behaviour of methanol solution mixed with water” value in data set [1] (methanol solution 1 mg per ml mixed with water) is given as “fine crystals precipitated”. In data set [2], the “solubility in organic solvents (known property)” value was “soluble in acetone, chloroform, methanol and ethanol”; the “solubility in water (known property)” value is “practically insoluble in water”.
On to `CCN(CC)c1ccc(C(=C2C=CC(=[N+](CC)CC)C=C2)c2ccccc2)cc1` [brilliant green, Brilliant Green], for which, in data set [3], the “release pattern from crystalline cellulose gel (very slow, slow, fast, very fast)” value (“release pattern” for short) is reported as “very fast” and the “dye release to liquid phase, absorbance” value worked out at 4 AU.
For the compound `Nc1c(/N=N/c2ccc(-c3ccc(/N=N/c4cc(S(=O)(=O)[O-])c5ccccc5c4N)cc3)cc2)cc(S(=O)(=O)[O-])c2ccccc12.[Na+].[Na+]` [congo red, Congo Red], in data set [3], the “colour of solution above the precipitate after 72 hours (dye diffusion out of cellulose crystals)” value (shortened to “colour of solution above the precipitate”) was “diffused out of the precipitated cellulose crystals”; the “release pattern” value is on record as “slow”; the “dye release to liquid phase, absorbance” value is 0.128 AU.
On the same counts, the results for `Oc1cc2c(cc1O)[C@@H]1c3ccc(O)c(O)c3OC[C@]1(O)C2` [haematoxylin, Hematoxilin] are “diffused out of the precipitated cellulose crystals”, “slow” and 0.09 AU.
For `CCN(Cc1cccc(S(=O)(=O)[O-])c1)c1ccc(C(=C2C=CC(=[N+](CC)Cc3cccc(S(=O)(=O)O)c3)C=C2)c2ccc(S(=O)(=O)O)cc2)cc1` [light green, Light Green], in data set [3], the “release pattern” value is “very fast” and the “dye release to liquid phase, absorbance” value stood at 4 AU.
Consider `CN(C)c1ccc(C(=C2C=CC(=[N+](C)C)C=C2)c2ccccc2)cc1.[Cl-]` [malachite green, Malachite Green], for which, in data set [3], the “release pattern” value is reported as “slow” and the “dye release to liquid phase, absorbance” value amounted to 0.32 AU.
For `CN(C)c1ccc2nc3ccc(=[N+](C)C)cc-3sc2c1` [methylene blue, Methylene Blue], in data set [3], the “colour of solution above the precipitate” value is listed as “slight bluish hue”; the “release pattern” value is “very slow”; the “dye release to liquid phase, absorbance” value is recorded as 0.025 AU.
For `Cc1cc2nc3cc(C)c(N)cc3[n+](-c3ccccc3)c2cc1N` [safranine, Safranine], in data set [3], the “colour of solution above the precipitate” value was “slight pinkish hue”; the “release pattern” value is listed as “slow”; the “dye release to liquid phase, absorbance” value is listed as 0.08 AU.
